Reference: PMC12251549, “Engineering a Radiohybrid PSMA Ligand with an Albumin-Binding Moiety and Pharmacokinetic Modulation via an Albumin-Binding Competitor for Radiotheranostics” (Molecules, 2025)

Columns and labels:
[1] = Biodistribution after intravenous co-injection of [125I]5 and [211At]6 (Table S2); type: in vivo, normal mice (ddY); details: normal mice
Procedure: [^67Ga]Ga-PSMA-617 (37 kBq) and [^125I]5 (37 kBq) or [^125I]5 (37 kBq) and [^211At]6 (37 kBq) were intravenously co-administered into three or four normal mice at each timepoint (6 weeks male ddY mice, 28–30 g, Japan SLC, Inc., Hamamatsu, Japan). Mice were sacrificed at 10 min, 1 h, 4 h, and 24 h ([^67Ga]Ga-PSMA-617 and [^125I]5) or at 10 min, 1 h, 4 h, 12 h, and 24 h ([^125I]5 and [^211At]6) postinjection of the radiolabeled compounds. Tissues of interest were removed and weighed, and the radioactivity of ^67Ga and ^125I and ^125I and ^211At were determined with an auto well gamma counter (ARC-8001) and corrected for background radiation as described in the Cellular Uptake Experiments Section. To determine the amount and routes of the radioactivity excreted from the body for 24 h after the injection of radiolabeled compounds, mice were housed in metabolic cages (METABOLICA, SUGIYAMA-GEN Co., Ltd., Tokyo, Japan). Data are shown as the percentage of injected dose per gram of tissues (%ID/g) or %ID.

[2] = In vitro stability test in 0.1 M phosphate buffer; type: physicochemical; details: 0.1 M PB solution containing 10% ethanol, 37 °C, 24 h, mean ± SD for three samples
Procedure: samples were analyzed by RP-HPLC using a Cosmosil 5C18-AR-II (4.6 × 150 mm) at a flow rate of 1 mL/min with a gradient mobile phase of 60% methanol in water with 0.1% trifluoroacetic acid (TFA) to 80% methanol in water with 0.1% TFA for 20 min.
In vitro stability test in 0.1 M PB solution containing 10% ethanol was performed. The […]
and 97.1 ± 0.9% (mean ± SD for three samples) after incubating at 37 °C for 24 h, […]

## O=C([O-])CN1CCN(CC(=O)[O-])CCN(CC(=O)NC(CCCCNC(=O)CCCc2ccc([125I])cc2)C(=O)NCC2CCC(C(=O)NC(Cc3ccc4ccccc4c3)C(=O)NCCCCC(NC(=O)NC(CCC(=O)O)C(=O)O)C(=O)O)CC2)CCN(CC(=O)[O-])CC1.[Ga+3] (stereo not shown) [[^125I]5]
[1]
  In vivo dehalogenation (radioactivity in stomach and neck): minimal deiodination or deastatination
[1]; i.v., 10 min after injection
  Biodistribution of radioactivity: Blood: 24.34 (0.27) % injected dose per gram
  Biodistribution of radioactivity: Bone: 2.42 (0.54) % injected dose per gram
  Biodistribution of radioactivity: Brain: 0.50 (0.04) % injected dose per gram
  Biodistribution of radioactivity: Heart: 4.48 (0.24) % injected dose per gram
  Biodistribution of radioactivity: Kidney: 5.27 (0.62) % injected dose per gram
  Biodistribution of radioactivity: L. Intestine: 0.84 (0.07) % injected dose per gram
  Biodistribution of radioactivity: Liver: 3.56 (0.01) % injected dose per gram
  Biodistribution of radioactivity: Lung: 13.97 (2.31) % injected dose per gram
  Biodistribution of radioactivity: Muscle: 1.01 (0.09) % injected dose per gram
  Biodistribution of radioactivity: Neck: 0.06 (0.01) % injected dose
  Biodistribution of radioactivity: Pancreas: 2.73 (0.25) % injected dose per gram
  Biodistribution of radioactivity: S. Intestine: 1.63 (0.23) % injected dose per gram
  Biodistribution of radioactivity: Spleen: 2.78 (0.58) % injected dose per gram
  Biodistribution of radioactivity: Stomach: 1.12 (0.10) % injected dose
[1]; i.v., 1 h after injection
  Biodistribution of radioactivity: Blood: 15.32 (1.28) % injected dose per gram
  Biodistribution of radioactivity: Bone: 1.67 (0.13) % injected dose per gram
  Biodistribution of radioactivity: Brain: 0.33 (0.09) % injected dose per gram
  Biodistribution of radioactivity: Heart: 4.10 (0.15) % injected dose per gram
  Biodistribution of radioactivity: Kidney: 4.66 (0.50) % injected dose per gram
  Biodistribution of radioactivity: L. Intestine: 0.89 (0.15) % injected dose per gram
  Biodistribution of radioactivity: Liver: 2.32 (0.32) % injected dose per gram
  Biodistribution of radioactivity: Lung: 8.89 (2.09) % injected dose per gram
  Biodistribution of radioactivity: Muscle: 1.24 (0.08) % injected dose per gram
  Biodistribution of radioactivity: Neck: 0.15 (0.04) % injected dose
  Biodistribution of radioactivity: Pancreas: 1.86 (0.33) % injected dose per gram
  Biodistribution of radioactivity: S. Intestine: 1.62 (0.30) % injected dose per gram
  Biodistribution of radioactivity: Spleen: 1.79 (0.34) % injected dose per gram
  Biodistribution of radioactivity: Stomach: 1.29 (0.50) % injected dose
[1]; i.v., 4 h after injection
  Biodistribution of radioactivity: Blood: 12.08 (0.95) % injected dose per gram
  Biodistribution of radioactivity: Bone: 1.83 (0.61) % injected dose per gram
  Biodistribution of radioactivity: Brain: 0.29 (0.04) % injected dose per gram
  Biodistribution of radioactivity: Heart: 3.88 (0.13) % injected dose per gram
  Biodistribution of radioactivity: Kidney: 5.20 (0.25) % injected dose per gram
  Biodistribution of radioactivity: L. Intestine: 1.26 (0.30) % injected dose per gram
  Biodistribution of radioactivity: Liver: 1.50 (0.16) % injected dose per gram
  Biodistribution of radioactivity: Lung: 7.01 (1.68) % injected dose per gram
  Biodistribution of radioactivity: Muscle: 1.20 (0.07) % injected dose per gram
  Biodistribution of radioactivity: Neck: 0.27 (0.09) % injected dose
  Biodistribution of radioactivity: Pancreas: 1.57 (0.21) % injected dose per gram
  Biodistribution of radioactivity: S. Intestine: 1.28 (0.16) % injected dose per gram
  Biodistribution of radioactivity: Spleen: 1.54 (0.22) % injected dose per gram
  Biodistribution of radioactivity: Stomach: 0.94 (0.29) % injected dose
[1]; i.v., 12 h after injection
  Biodistribution of radioactivity: Blood: 11.77 (1.29) % injected dose per gram
  Biodistribution of radioactivity: Bone: 1.88 (0.25) % injected dose per gram
  Biodistribution of radioactivity: Brain: 0.34 (0.07) % injected dose per gram
  Biodistribution of radioactivity: Heart: 3.62 (0.39) % injected dose per gram
  Biodistribution of radioactivity: Kidney: 6.62 (0.34) % injected dose per gram
  Biodistribution of radioactivity: L. Intestine: 0.87 (0.13) % injected dose per gram
  Biodistribution of radioactivity: Liver: 1.59 (0.12) % injected dose per gram
  Biodistribution of radioactivity: Lung: 8.00 (1.24) % injected dose per gram
  Biodistribution of radioactivity: Muscle: 1.32 (0.07) % injected dose per gram
  Biodistribution of radioactivity: Neck: 0.12 (0.09) % injected dose
  Biodistribution of radioactivity: Pancreas: 1.75 (0.45) % injected dose per gram
  Biodistribution of radioactivity: S. Intestine: 1.08 (0.07) % injected dose per gram
  Biodistribution of radioactivity: Spleen: 1.75 (0.21) % injected dose per gram
  Biodistribution of radioactivity: Stomach: 0.68 (0.09) % injected dose
[1]; i.v., 24 h after injection
  Biodistribution of radioactivity: Blood: 8.71 (0.20) % injected dose per gram
  Biodistribution of radioactivity: Bone: 1.26 (0.12) % injected dose per gram
  Biodistribution of radioactivity: Brain: 0.22 (0.02) % injected dose per gram
  Biodistribution of radioactivity: Heart: 2.91 (0.21) % injected dose per gram
  Biodistribution of radioactivity: Kidney: 5.06 (0.61) % injected dose per gram
  Biodistribution of radioactivity: L. Intestine: 0.63 (0.09) % injected dose per gram
  Biodistribution of radioactivity: Liver: 1.29 (0.05) % injected dose per gram
  Biodistribution of radioactivity: Lung: 5.00 (0.75) % injected dose per gram
  Biodistribution of radioactivity: Muscle: 1.08 (0.08) % injected dose per gram
  Biodistribution of radioactivity: Neck: 0.17 (0.05) % injected dose
  Biodistribution of radioactivity: Pancreas: 1.35 (0.12) % injected dose per gram
  Biodistribution of radioactivity: S. Intestine: 0.69 (0.04) % injected dose per gram
  Biodistribution of radioactivity: Spleen: 1.21 (0.27) % injected dose per gram
  Biodistribution of radioactivity: Stomach: 0.55 (0.02) % injected dose
[1]; i.v., excreted for 24 h after injection (column not printed safely), Table S2
  Biodistribution of radioactivity: Feces: 8.13 (1.09) % injected dose
[2]
  Radiochemical purity after incubation (in vitro stability): 97.0 ± 0.7%
